Source: publication PMC11764660, “Self-Assembled Peptide Hydrogels PPI45 and PPI47: Novel Drug Candidates for Staphylococcus aureus Infection Treatment” (Gels, 2025)

Columns and labels:
Format in all cases: cell-based, Staphylococcus aureus
S. aureus ATCC 43300 [1] = assay: Time-dependent bactericidal kinetic curve (time-kill); settings: 2× MIC, S. aureus ATCC 43300, start 1×10^5 CFU/mL, 37 °C, 250 rpm
Description: The mixture was subsequently incubated in a shaker at 37 °C and 250 rpm. At predetermined intervals (0, 0.5, 1, 2, 4, 6, 10, 22, and 24 h), 100 μL aliquots were withdrawn and subjected to serial 10-fold dilutions before being plated for colony counting.

S. aureus ATCC 43300 [2] = assay: PAE assay; settings: 2×MIC, 2 h exposure of 10^8 CFU/mL at 37 °C, 1000-fold dilution; time for tenfold increase of the colony count
Description: The mixture was subsequently incubated for 2 h at 37 °C and 250 rpm. Upon completion of the incubation period, 50 µL of the solution was withdrawn and diluted 1000-fold by adding […] of pre-warmed MHB, which was designated as the 0 h time point. Subsequently, samples were collected at 0, 0.5, 1, 2, 4, 6, 8, 10, 12, and 24 h. Each sample was subjected to 10-fold serial dilutions before being plated, and colony counts were performed. PBS served as the negative control. The time required for the colony count in each treatment group to increase tenfold relative to the post-reconstruction baseline was determined as PAE.

S. aureus ATCC43300 [3] = assay: SEM observation of bacterial morphology; settings: 2×MIC, 2 h, 37 °C, 10^8 CFU/mL
Description: This mixture was incubated at 37 °C for 2 h. The 0.01 M PBS (pH 7.4) served as the blank control. After being centrifugated at 4000 rpm for 5 min, the samples were carefully washed three times with 0.01 M PBS. Next, 1 mL of 2.5% glutaraldehyde was added to each sample and stored at 4 °C overnight. The samples were washed twice with distilled water and subsequently dehydrated through a series of ethanol solutions (50%, 70%, 85%, 95%, and 100%). Each sample received three treatments with 100% ethanol, followed by drying at the CO2 critical point, gold sputtering, and observation under a scanning electron microscope.

S. aureus ATCC43300 [4] = assay: Cell membrane integrity analysis (PI, flow cytometry); settings: 2×MIC, 37 °C, 10^8 CFU/mL
Description: The solution was incubated at 37 °C for 0.5, 1, 1.5, and 2 h, respectively, and 0.01 M PBS (pH 7.4) was used as a blank control. After the incubation periods, each sample was centrifugated at 4000 rpm for 5 min. Subsequently, 400 µL of the supernatant was removed, and 400 µL of sterile PBS was added. The samples were washed twice and then resuspended with PBS to a final volume of 450 µL. A 50 µL volume of PI staining solution (500 µg/mL) was added, and the samples were incubated for 15 min in the dark. Finally, the cells fixed with PI were analyzed using flow cytometry.

S. aureus ATCC 43300 [5] = assay: Membrane potential (DiSC3(5)); settings: DiSC3(5) fluorescence, 1×, 2×, 4× MIC, 30 min, 37 °C, three replicates
Description: The fluorescent probe DiSC3(5) (0.5 mM) was co-incubated with PBS (10^8 CFU/mL) of S. aureus for 30 min at 37 °C. A total of 180 µL of bacteria carrying fluorescent probes and 20 µL of peptide solution at varying concentrations were added to 96-well plates and incubated for 30 min at 37 °C. The sample treated with PBS served as the negative control, and each concentration was set as three replicates. The alterations in fluorescence (excitation wavelength: 620 nm, emission wavelength: 670 nm) were monitored in real time over a period of 30 min using a multifunctional enzyme-labeling instrument.

| Compound | bacterial count at 6 h (S. aureus ATCC 43300 [1]) | bacterial count at 24 h (S. aureus ATCC 43300 [1]) | post-antibiotic effect (PAE) (S. aureus ATCC 43300 [2]) | morphological changes of the bacteria by SEM (S. aureus ATCC43300 [3]) | membrane penetration rate (PI-positive bacteria) (S. aureus ATCC43300 [4]; 1 h) | membrane penetration rate (PI-positive bacteria) (S. aureus ATCC43300 [4]; 1.5 h) | membrane penetration rate (PI-positive bacteria) (S. aureus ATCC43300 [4]; 2 h) | effect on membrane potential (S. aureus ATCC 43300 [5]) |
| --- | --- | --- | --- | --- | --- | --- | --- | --- |
| CC1COc2c(N3CCN(C)CC3)c(F)cc3c(=O)c(C(=O)O)cn1c23 (centres unmarked) [ofloxacin, Ofloxacin] | 2 log10 CFU/mL | 4.15 log10 CFU/mL | 0.77 h | crumpled appearance with leakage of intracellular contents | 0.26% | 0.7% | 1.13% | – |
| nisin | – | – | – | – | – | – | – | depolarization |
